Consider five compounds from PMC12169847, “Targeted protein degradation by KLHDC2 ligands identified by high-throughput screening” (eLife, 2025).

One test has as its target T1, KEAP1 Kelch domain (Homo sapiens, UniProt Q14145).
T1 construct: HIS6 (N); made in house; host or cells: Escherichia coli BL21(DE3)
As to the kind of experiment: Fluorescence polarization counter-screen, KEAP1 with TAMRA-NRF2 peptide. Type of test: binding. The following applies: for Fluorescence polarization signal: KEAP1, replicate wells; for inhibitory effect in the KEAP1 counter-screening assay: concentrations less than 20 µM; for EC50: in figure. A general note: Fluorescence polarisation rises when a labelled molecule tumbles more slowly, as on binding a larger partner.

For test [1], the target named is T2, KLHDC2 (Homo sapiens, UniProt Q9Y2U9).
T2 sequence (Q9Y2U9 1-362): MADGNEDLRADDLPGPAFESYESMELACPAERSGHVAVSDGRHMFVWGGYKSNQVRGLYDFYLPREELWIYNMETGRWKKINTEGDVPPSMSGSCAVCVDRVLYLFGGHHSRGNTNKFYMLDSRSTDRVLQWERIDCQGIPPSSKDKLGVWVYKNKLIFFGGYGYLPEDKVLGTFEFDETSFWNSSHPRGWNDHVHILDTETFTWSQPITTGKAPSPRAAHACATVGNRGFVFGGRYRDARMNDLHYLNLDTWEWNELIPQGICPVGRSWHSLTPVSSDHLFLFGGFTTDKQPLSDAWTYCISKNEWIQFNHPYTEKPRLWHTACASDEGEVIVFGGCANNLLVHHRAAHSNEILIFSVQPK
Briefly: Surface plasmon resonance direct binding to immobilized KLHDC2. The following applies: read-out: KLHDC2 Kd (SPR).

Another test concerns the target T3, GST-tagged KLHDC2 (Homo sapiens, UniProt Q9Y2U9).
T3 sequence (Q9Y2U9 1-362): T2 sequence (Q9Y2U9 1-362)
Briefly: Fluorescence polarization competition assay, KLHDC2 with TAMRA-SelK peptide (384-well). The settings on record: for Fluorescence polarization signal: KLHDC2, replicate wells.

The target in the next test is SelK (Homo sapiens) (UniProt Q9Y6D0). The settings on record: cited from earlier work.
Chain of SelK (Homo sapiens) (Q9Y6D0 2-94): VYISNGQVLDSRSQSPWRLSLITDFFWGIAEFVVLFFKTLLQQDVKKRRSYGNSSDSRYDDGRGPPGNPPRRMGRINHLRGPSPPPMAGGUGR
For test [2], the target named is KLHDC2. Further details: method as in Rusnac et al., 2018. The settings on record: ref Rusnac et al., 2018; read-out: dissociation constant, reported literature value; cited from earlier work.

“And” between values parts separate entries of the source, which are not always exact repeats. Equal entries are not always repeated.

T1 sequence (Q14145 321-609 limits assumed): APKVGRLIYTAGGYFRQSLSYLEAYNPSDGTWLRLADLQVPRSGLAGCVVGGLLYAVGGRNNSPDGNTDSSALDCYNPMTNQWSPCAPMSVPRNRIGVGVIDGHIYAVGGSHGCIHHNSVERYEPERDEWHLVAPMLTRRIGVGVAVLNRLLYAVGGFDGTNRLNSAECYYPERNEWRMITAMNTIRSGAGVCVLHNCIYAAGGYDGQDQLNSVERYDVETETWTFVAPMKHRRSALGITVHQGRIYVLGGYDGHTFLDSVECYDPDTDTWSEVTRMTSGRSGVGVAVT
Chain of KLHDC2 (from UniProt Q9Y2U9) (Q9Y2U9 whole entry): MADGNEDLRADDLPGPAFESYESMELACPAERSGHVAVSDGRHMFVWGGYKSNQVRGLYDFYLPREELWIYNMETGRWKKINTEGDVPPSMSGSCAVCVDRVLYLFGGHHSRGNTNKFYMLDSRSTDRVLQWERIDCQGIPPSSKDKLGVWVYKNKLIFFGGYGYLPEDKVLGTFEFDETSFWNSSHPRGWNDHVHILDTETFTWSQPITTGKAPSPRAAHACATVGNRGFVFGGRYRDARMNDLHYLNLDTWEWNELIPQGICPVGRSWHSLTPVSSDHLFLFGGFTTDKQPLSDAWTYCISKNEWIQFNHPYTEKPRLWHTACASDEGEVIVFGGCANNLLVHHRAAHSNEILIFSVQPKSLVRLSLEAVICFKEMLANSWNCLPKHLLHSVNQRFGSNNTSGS

As to `COc1ccc(C2CC(c3cccc(F)c3)Nc3c(C(=O)O)cc(Br)cc32)cc1OC` (centres unmarked) [compound 1], the Fluorescence polarization signal was 15.2 and 20.2 and 9.533 on KEAP1 Kelch domain (0.169351 nM); 11.1 and 15.1 and 18.7 on KEAP1 Kelch domain (0.508053 nM); 20.7 and 19.8 (2×) at KEAP1 Kelch domain (1.52416 nM); 27.1 and 18.2 and 28.2 at KEAP1 Kelch domain (4.57247 nM); 24.4 and 19.1 and 17 on KEAP1 Kelch domain (13.7174 nM); 12.2 and 19.5 and 19.8 at KEAP1 Kelch domain (41.1523 nM). In addition, the Fluorescence polarization signal is 21.2 and 18.9 and 16.3 on KEAP1 Kelch domain (123.457 nM); 24.1 and 16.2 and 17.6 at KEAP1 Kelch domain (370.37 nM); 21.2 and 15.6 and 17.3 at KEAP1 Kelch domain (1111.11 nM); 8.697 and 21.8 and 19.7 at KEAP1 Kelch domain (3333.33 nM); 14.9 and 22.1 and 19.3 at KEAP1 Kelch domain (10000 nM); 0.6958 and 5.527 and -6.154 on GST-tagged KLHDC2 (0.169351 nM). Moreover, the Fluorescence polarization signal is 0.1958 and 5.927 and -4.854 on GST-tagged KLHDC2 (0.508053 nM); -13.1042 and -0.4734 and -3.754 on GST-tagged KLHDC2 (1.52416 nM); 1.996 and -1.273 and -4.954 at GST-tagged KLHDC2 (4.57247 nM); 2.396 and 3.527 and -0.6542 on GST-tagged KLHDC2 (13.7174 nM); 2.696 and 0.3828 and -2.854 on GST-tagged KLHDC2 (41.1523 nM); -3.504 and -5.782 and -9.454 at GST-tagged KLHDC2 (123.457 nM). For the same compound, the Fluorescence polarization signal at GST-tagged KLHDC2 (370.37 nM) was -4.604 and 3.827 and -2.854; on GST-tagged KLHDC2 (1111.11 nM), -13.7042 and -3.373 and -3.854; on GST-tagged KLHDC2 (3333.33 nM) it was -18.1042 and -20.4734 and -17.5543; at GST-tagged KLHDC2 (10000 nM), -16.9042 and -31.6734 and -31.9543. On KEAP1 Kelch domain, the “inhibitory effect in the KEAP1 counter-screening assay” value (“inhibitory effect” below) was “did not have an inhibitory effect”. In addition, the EC50 on KEAP1 Kelch domain was more than 20 µM; on GST-tagged KLHDC2, 2.5 µM. In addition, the Kd at KLHDC2 [1] was 0.81 µM and 0.809 µM. Also, the IC50 on GST-tagged KLHDC2 stood at 2.5 µM.

On to `Cc1ccc(C)c(C2Nc3c(C(=O)O)cc(Cl)cc3C3C4CCC(C4)C23)c1` (centres unmarked) [compound 2], for which the Fluorescence polarization signal was 14.7 and 20.2 and 14.4 at KEAP1 Kelch domain (0.169351 nM); 10.4 and 15.1 and 11.1 at KEAP1 Kelch domain (0.508053 nM); 17 and 19.8 and 20.3 on KEAP1 Kelch domain (1.52416 nM); 20.3 and 18.2 and 19.6 on KEAP1 Kelch domain (4.57247 nM); 18.8 and 19.1 and 18 on KEAP1 Kelch domain (13.7174 nM); 21.6 and 19.5 and 32 at KEAP1 Kelch domain (41.1523 nM). For the same compound, the Fluorescence polarization signal at KEAP1 Kelch domain (123.457 nM) is 24.5 and 18.9 and 12.1; at KEAP1 Kelch domain (370.37 nM), 22.6 and 16.2 and 24.9; on KEAP1 Kelch domain (1111.11 nM), 20.2 and 15.6 and 21; at KEAP1 Kelch domain (3333.33 nM), 14.8 and 21.8 and 27; at KEAP1 Kelch domain (10000 nM), 17.3 and 22.1 and 15.2; at GST-tagged KLHDC2 (0.169351 nM), -6.704 and 3.427 and -1.254. Further, the Fluorescence polarization signal was -10.2042 and 5.927 and -5.854 on GST-tagged KLHDC2 (0.508053 nM); -0.3042 and -6.173 and -5.554 at GST-tagged KLHDC2 (1.52416 nM); 3.896 and 7.124 and -7.354 at GST-tagged KLHDC2 (4.57247 nM); 2.496 and 7.927 and -2.554 at GST-tagged KLHDC2 (13.7174 nM); 1.996 and 10.1266 and 8.192 on GST-tagged KLHDC2 (41.1523 nM); -3.304 and -7.673 and -6.554 at GST-tagged KLHDC2 (123.457 nM). For the same compound, the Fluorescence polarization signal on GST-tagged KLHDC2 (370.37 nM) is -2.804 and -8.673 and -1.254; at GST-tagged KLHDC2 (1111.11 nM) it was -10.1042 and -12.1734 and -2.854; at GST-tagged KLHDC2 (3333.33 nM), -28.2042 and -24.2734 and -28.2543; on GST-tagged KLHDC2 (10000 nM) it was -26.0042 and -23.7734 and -24.4543. Moreover, the “inhibitory effect” value against KEAP1 Kelch domain is listed as “did not have an inhibitory effect”. The figures for the EC50 at KEAP1 Kelch domain and on GST-tagged KLHDC2 were more than 20 µM and 1.27 µM, respectively. The Kd at KLHDC2 [1] is 0.44 µM and 0.443 µM. For the same compound, the IC50 on GST-tagged KLHDC2 turned out to be 1.3 µM.

Regarding `O=C(O)c1cc(Cl)cc2c1NC(c1cccc(C(F)(F)F)c1)C1C3CCC(C3)C21` (centres unmarked) [compound 5], the Fluorescence polarization signal was 20 and 24 and 25 on KEAP1 Kelch domain (0.169351 nM); 22 and 20 and 32 at KEAP1 Kelch domain (0.508053 nM); 29 and 21 and 41 at KEAP1 Kelch domain (1.52416 nM); 16 and 24 and 43 at KEAP1 Kelch domain (4.57247 nM); 24 (2×) and 27 at KEAP1 Kelch domain (13.7174 nM); 20 and 18 and 26 on KEAP1 Kelch domain (41.1523 nM). The Fluorescence polarization signal at KEAP1 Kelch domain (123.457 nM) was 20 and 35 and 31; at KEAP1 Kelch domain (370.37 nM), 31 and 22 and 25; on KEAP1 Kelch domain (1111.11 nM) it was 25 and 23 and 18; at KEAP1 Kelch domain (3333.33 nM), 15 and 26 and 34; on KEAP1 Kelch domain (10000 nM), 31 and 14 and 27; at GST-tagged KLHDC2 (0.169351 nM), -4 and 1 and 6. The Fluorescence polarization signal was -11.1 and -2.3 and 1 on GST-tagged KLHDC2 (0.508053 nM); -1.4 and 2 and 0 on GST-tagged KLHDC2 (1.52416 nM); 1 (2×) and -8.1 at GST-tagged KLHDC2 (4.57247 nM); 1 and -4 and 0 at GST-tagged KLHDC2 (13.7174 nM); 1 and -1.4 and -5.1 on GST-tagged KLHDC2 (41.1523 nM); 0 and -2.6 and -8.8 on GST-tagged KLHDC2 (123.457 nM). Moreover, the Fluorescence polarization signal at GST-tagged KLHDC2 (370.37 nM) was -30.6 and -31 and -24.7; at GST-tagged KLHDC2 (1111.11 nM), -67.8 and -66.2 and -52.8; at GST-tagged KLHDC2 (3333.33 nM), -93.4 and -88.4 and -82.2; at GST-tagged KLHDC2 (10000 nM), -84.4 and -101.233 and -107.845. For the same compound, the “inhibitory effect” value on KEAP1 Kelch domain was “no inhibitory effect”. For the same compound, the results for the concentration giving a half-maximal response (EC50) at KEAP1 Kelch domain and on GST-tagged KLHDC2 were more than 20 µM and 0.76 µM, respectively. Besides, on KLHDC2 [1], the Kd was 0.38 µM and 0.379 µM. Also, the IC50 at GST-tagged KLHDC2 amounted to 0.76 µM.

Take KLHDC2 (from UniProt Q9Y2U9): the Kd in the test with SelK (Homo sapiens) is 0.0034 µM.

As to “SelK: client protein of KLHDC2 with C-terminal diglycine degron”, the Kd at KLHDC2 [2] is less than 0.01 µM.

A word on the EC50: it is the concentration giving half of the maximal effect. The low end stands for greater potency, the high end for weaker potency. Usually IC50 stands for the point on the concentration scale where inhibition reaches its midpoint. A high value points to weaker potency.
